A value given as a limit tells only on which side of the number the result lay.

T1 sequence (Q9UQD0 whole entry): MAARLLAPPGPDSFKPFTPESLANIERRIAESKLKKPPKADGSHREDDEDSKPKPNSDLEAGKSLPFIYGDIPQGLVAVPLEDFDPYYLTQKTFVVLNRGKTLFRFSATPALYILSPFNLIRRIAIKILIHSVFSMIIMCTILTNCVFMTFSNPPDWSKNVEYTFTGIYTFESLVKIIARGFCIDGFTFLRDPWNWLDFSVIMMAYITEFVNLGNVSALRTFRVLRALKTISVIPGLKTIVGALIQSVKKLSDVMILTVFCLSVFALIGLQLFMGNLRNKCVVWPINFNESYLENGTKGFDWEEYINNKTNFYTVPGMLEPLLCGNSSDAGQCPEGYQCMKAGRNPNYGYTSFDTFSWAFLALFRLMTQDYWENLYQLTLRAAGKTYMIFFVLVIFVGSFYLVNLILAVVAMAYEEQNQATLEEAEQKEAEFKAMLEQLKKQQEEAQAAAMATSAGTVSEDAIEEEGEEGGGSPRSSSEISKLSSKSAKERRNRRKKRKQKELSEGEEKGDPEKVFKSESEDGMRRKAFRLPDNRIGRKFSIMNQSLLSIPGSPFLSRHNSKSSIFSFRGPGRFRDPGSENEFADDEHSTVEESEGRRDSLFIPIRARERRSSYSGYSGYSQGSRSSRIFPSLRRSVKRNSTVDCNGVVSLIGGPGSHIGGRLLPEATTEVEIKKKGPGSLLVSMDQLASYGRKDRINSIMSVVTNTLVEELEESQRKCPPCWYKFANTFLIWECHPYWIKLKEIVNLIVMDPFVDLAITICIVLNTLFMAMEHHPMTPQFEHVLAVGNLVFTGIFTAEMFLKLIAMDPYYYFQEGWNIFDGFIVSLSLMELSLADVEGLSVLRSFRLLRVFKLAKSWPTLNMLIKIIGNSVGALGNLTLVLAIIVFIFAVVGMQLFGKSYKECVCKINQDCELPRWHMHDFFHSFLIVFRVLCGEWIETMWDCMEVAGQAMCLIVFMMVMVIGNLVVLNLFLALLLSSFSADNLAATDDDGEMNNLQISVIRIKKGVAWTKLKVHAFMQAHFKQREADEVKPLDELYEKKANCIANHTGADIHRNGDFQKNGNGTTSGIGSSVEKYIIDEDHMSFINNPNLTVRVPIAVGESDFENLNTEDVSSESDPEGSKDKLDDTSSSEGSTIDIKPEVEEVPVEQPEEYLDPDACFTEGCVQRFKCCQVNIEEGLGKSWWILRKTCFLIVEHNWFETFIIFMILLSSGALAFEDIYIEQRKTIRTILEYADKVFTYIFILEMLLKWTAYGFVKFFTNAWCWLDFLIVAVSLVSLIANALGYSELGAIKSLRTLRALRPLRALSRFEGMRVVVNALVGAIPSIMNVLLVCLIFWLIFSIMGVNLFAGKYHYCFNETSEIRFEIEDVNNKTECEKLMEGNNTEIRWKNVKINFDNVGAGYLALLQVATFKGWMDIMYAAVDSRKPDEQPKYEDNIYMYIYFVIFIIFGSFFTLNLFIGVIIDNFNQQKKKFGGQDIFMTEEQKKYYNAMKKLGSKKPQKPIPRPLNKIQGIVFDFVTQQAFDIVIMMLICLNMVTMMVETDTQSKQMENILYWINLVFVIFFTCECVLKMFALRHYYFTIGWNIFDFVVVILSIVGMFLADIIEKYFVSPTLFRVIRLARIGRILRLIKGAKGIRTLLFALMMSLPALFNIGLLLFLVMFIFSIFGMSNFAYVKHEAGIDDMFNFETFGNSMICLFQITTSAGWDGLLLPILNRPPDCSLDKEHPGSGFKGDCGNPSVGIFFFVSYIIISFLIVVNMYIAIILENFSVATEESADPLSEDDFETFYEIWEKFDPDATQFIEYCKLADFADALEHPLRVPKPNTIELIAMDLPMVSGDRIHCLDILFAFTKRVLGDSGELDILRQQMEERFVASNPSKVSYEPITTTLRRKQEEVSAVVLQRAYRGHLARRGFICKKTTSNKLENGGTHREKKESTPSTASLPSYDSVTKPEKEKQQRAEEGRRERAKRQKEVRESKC

This assay concerns the target T1, INaL v1.6 (late sodium current, HEK-293 cells expressing recombinant sodium channels) (Homo sapiens, UniProt Q9UQD0).
T1 construct: expressed in transfected cells; host or cells: HEK-293
The assay is described as follows: Inhibition of ATX-II evoked Nav late current (INaL), PatchXpress electrophysiology. Format: cell-based. To be noted: HEK293, compound at 1 μM, late current evoked by ATX-II 300 nM. Here is the method: Functional characterization of exemplary compounds to modulate voltage gated sodium currents was accomplished using the PatchXpress™ high throughput electrophysiology platforms (Molecular Devices, Sunnyvale, CA). HEK-293 cells expressing recombinant sodium channels were grown in DMEM/high-glucose Dulbecco's modified, 10% FBS, 2 mM sodium pyruvate, and G418. Nav channel expressing cells were grown to 50%-80% confluency and harvested by trypsinization. Trypsinized cells were washed and resuspended in extracellular buffer at a concentration of 1×10^6 cells/ml. The onboard liquid handling facility of the PatchXpress was used for dispensing cells and application of test compounds. Nav late currents were evoked by the application of ATX-II, 300 nM. Currents were evoked by depolarizing pulses to 0 mV for 200 ms from a non-inactivating holding potential (e.g., −120 mV to −150 mV) at a frequency of 0.1 Hz. Late current amplitude and stability were determined by analyzing the mean current amplitude over the 175-195 msec region of the 200 msec test pulse. Following steady state block with exemplary compounds (e.g., as described herein) at 1 μM, a Na^+ free solution containing an impermeant cation (e.g., Choline or NDMG) was added for determination of the 0 current level. Late current amplitudes for each test condition were determined from the mean of the 175-195 msec region of the 200 msec test pulse. Percent inhibition of steady state currents was calculated as (compound−baseline)/(control−baseline)*100, where control represents INaL recorded in the absence of compound.
In the case of `CC(C)(Oc1ncc(-c2ccc3nnc(C(F)(F)F)n3n2)cc1F)C(F)(F)F` [Compound 34, 6-[5-fluoro-6-(2,2,2-trifluoro-1,1-dimethyl-ethoxy)-3-pyridyl]-3-(trifluoromethyl)-[1,2,4]triazolo[4,3-b]pyridazine], the inhibition at 1 µM is above 75%. To `Cc1c(-c2cnc(O[C@@H](C)C(F)(F)F)c(F)c2)ncc2nnc(C(F)(F)F)n12` [Compound 38, 6-[5-fluoro-6-[(1S)-2,2,2-trifluoro-1-methyl-ethoxy]-3-pyridyl]-5-methyl-3-(trifluoromethyl)-[1,2,4]triazolo[4,3-a]pyrazine] belongs 50 to 75%.

For the molecule `Cc1c(-c2cnc(O[C@H](C)C(F)(F)F)c(F)c2)ncc2nnc(C(F)(F)F)n12` [Compound 39, 6-[5-fluoro-6-[(1R)-2,2,2-trifluoro-1-methyl-ethoxy]-3-pyridyl]-5-methyl-3-(trifluoromethyl)-[1,2,4]triazolo[4,3-a]pyrazine], the inhibition at 1 µM lay in the range of 50 to 75%. The result for `Cc1cc2nnc(C(F)(F)F)n2nc1-c1cnc(OC(C)(C)C(F)(F)F)c(F)c1` [Compound 40, 6-[5-fluoro-6-(2,2,2-trifluoro-1,1-dimethyl-ethoxy)-3-pyridyl]-7-methyl-3-(trifluoromethyl)-[1,2,4]triazolo[4,3-b]pyridazine] reads above 75%. To `CC(C)(Oc1ncc(-c2nn3c(C(F)(F)F)nnc3cc2Cl)cc1F)C(F)(F)F` [Compound 41, 7-chloro-6-[5-fluoro-6-(2,2,2-trifluoro-1,1-dimethyl-ethoxy)-3-pyridyl]-3-(trifluoromethyl)-[1,2,4]triazolo[4,3-b]pyridazine] belongs above 75%. To `C[C@@H](Oc1ncc(-c2nn3c(C(F)(F)F)nnc3cc2Cl)cc1F)C(F)(F)F` [Compound 42, 7-chloro-6-[5-fluoro-6-[(1R)-2,2,2-trifluoro-1-methyl-ethoxy]-3-pyridyl]-3-(trifluoromethyl)-[1,2,4]triazolo[4,3-b]pyridazine] belongs 50 to 75%; to `C[C@H](Oc1ncc(-c2nn3c(C(F)(F)F)nnc3cc2Cl)cc1F)C(F)(F)F` [Compound 43, 7-chloro-6-[5-fluoro-6-[(1S)-2,2,2-trifluoro-1-methyl-ethoxy]-3-pyridyl]-3-(trifluoromethyl)-[1,2,4]triazolo[4,3-b]pyridazine], 50 to 75%. For the molecule `Cc1cc2nnc(C(F)(F)F)n2nc1-c1cnc(O[C@@H](C)C(F)(F)F)c(F)c1` [Compound 44, (S)-6-(5-fluoro-6-((1,1,1-trifluoropropan-2-yl)oxy)pyridin-3-yl)-7-methyl-3-(trifluoromethyl)-[1,2,4]triazolo[4,3-b]pyridazine], the inhibition at 1 µM is above 75%. The result for `Cc1cc2nnc(C(F)(F)F)n2nc1-c1cnc(O[C@H](C)C(F)(F)F)c(F)c1` [Compound 45, (R)-6-(5-fluoro-6-((1,1,1-trifluoropropan-2-yl)oxy)pyridin-3-yl)-7-methyl-3-(trifluoromethyl)-[1,2,4]triazolo[4,3-b]pyridazine] reads 50 to 75%; that for `C[C@H](Oc1ccc(-c2nn3c(C(F)(F)F)nnc3cc2Cl)cn1)C(F)(F)F` [Compound 46, (S)-7-chloro-3-(trifluoromethyl)-6-(6-((1,1,1-trifluoropropan-2-yl)oxy)pyridin-3-yl)-[1,2,4]triazolo[4,3-b]pyridazine], above 75%. On to `C[C@@H](Oc1ccc(-c2nn3c(C(F)(F)F)nnc3cc2Cl)cn1)C(F)(F)F` [Compound 47, (R)-7-chloro-3-(trifluoromethyl)-6-(6-((1,1,1-trifluoropropan-2-yl)oxy)pyridin-3-yl)-[1,2,4]triazolo[4,3-b]pyridazine], for which the inhibition at 1 µM is 50 to 75%.

For `Cc1cc2nnc(C(F)(F)F)n2nc1-c1ccc(O[C@@H](C)C(F)(F)F)nc1` [Compound 48, (S)-7-methyl-3-(trifluoromethyl)-6-(6-((1,1,1-trifluoropropan-2-yl)oxy)pyridin-3-yl)-[1,2,4]triazolo[4,3-b]pyridazine], the inhibition at 1 µM was above 75%. To `Cc1cc2nnc(C(F)(F)F)n2nc1-c1ccc(O[C@H](C)C(F)(F)F)nc1` [Compound 49, (R)-7-methyl-3-(trifluoromethyl)-6-(6-((1,1,1-trifluoropropan-2-yl)oxy)pyridin-3-yl)-[1,2,4]triazolo[4,3-b]pyridazine] belongs 50 to 75%; to `CC(C)(Oc1ccc(-c2nn3c(C(F)(F)F)nnc3cc2Cl)cn1)C(F)(F)F` [Compound 50, 7-chloro-6-[6-(2,2,2-trifluoro-1,1-dimethyl-ethoxy)-3-pyridyl]-3-(trifluoromethyl)-[1,2,4]triazolo[4,3-b]pyridazine], above 75%. To `Cc1cc2nnc(C(F)(F)F)n2nc1-c1ccc(OC(C)(C)C(F)(F)F)nc1` [Compound 51, 7-methyl-6-[6-(2,2,2-trifluoro-1,1-dimethyl-ethoxy)-3-pyridyl]-3-(trifluoromethyl)-[1,2,4]triazolo[4,3-b]pyridazine] belongs 50 to 75%; to `FC(F)c1nnc2cnc(-c3ccc(OC4CC(F)(F)C4)nc3)cn12` [Compound 52, 6-(6-(3,3-difluorocyclobutoxy)pyridin-3-yl)-3-(difluoromethyl)-[1,2,4]triazolo [4,3-a]pyrazine], 50 to 75%.

The inhibition is the relative decrease from the control value, in per cent.

For the origin of these results see patent US12344615B2, “Substituted pyridines as ion channel modulators” (PRAXIS PRECISION MEDICINES, INC., priority 2019, dated 2025).
